This is an account of results in the METLIN SMRT retention time set (Domingo-Almenara et al. 2019).

This data set can be described thus: gradient 5% acetonitrile 3 min, to 50% in 2 min, to 85% in 15 min, held 3 min, 100 µL/min. The note with it: column: Zorbax Extend-C18 2.1 x 50 mm; eluents: water / acetonitrile, 0.1% formic acid. In a few lines:
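Values are retention times taken from adduct peaks that software picked and an analyst inspected. The pure standards were run as mixtures of ~100 molecules on HPLC linked to a quadrupole time-of-flight mass spectrometer, in positive and negative ionization mode. A Zorbax Extend-C18 column (2.1 × 50 mm, 1.8 μm) was used at 100 μL/min with water and acetonitrile, each including 0.1% formic acid.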
Regarding `CCNc1cc(N2CCC(CCC(=O)NCCC(C)C)CC2)ncn1`, the RP-LC retention time was determined as 538 s.

The compound `Cc1ccc(-c2cn3cccnc3n2)cc1NC(=O)c1ccc(Br)cc1` had an RP-LC retention time of 730 s. Compound `CC(C)CC(=O)Nc1nc(-c2ccc3ccccc3c2)cs1` came in with an RP-LC retention time of 1140 s. As to `Nc1cc(C2CCN(C(=O)/C=C/c3ccccc3)CC2)no1`, the RP-LC retention time is 724 s.

Turning to `CCn1c(=O)sc2cc(S(=O)(=O)N3CCC(C(=O)NCC(C)c4ccccc4)CC3)ccc21` (stereo not given), the RP-LC retention time came to 929 s. For `COc1ccc2nc3oc(C(=O)NCCN4CCN(C)CC4)cc3cc2c1`, the RP-LC retention time turned out to be 597 s.

As for `CCc1ccc(C(=O)N2CCC(c3nc4ccncc4n3C(C)C)C2)cc1` (stereo not given), the RP-LC retention time turned out to be 572 s. In the case of `CCCN(C(=O)CC)c1nc(-c2cccc(Cl)c2)cs1` it was 1320 s; in that of `O=C(Cn1nc2nc(Nc3ccc(F)cc3)ccn2c1=O)NCc1ccc(F)cc1Cl`, 753 s. `CC1CCN(c2nn(CC(=O)Nc3ccccc3)c(=O)c3ccccc23)CC1` yielded an RP-LC retention time of 1110 s. Consider `CCn1c(=O)c2ccn(CC(=O)Nc3cc(C)ccn3)c2n(CC)c1=O`, for which the RP-LC retention time was 644 s. In the case of `COc1cccc(C2Cn3nnc(-c4nc(-c5cccc(Cl)c5)no4)c3CO2)c1` (stereo not given) it was 1250 s. In the case of `Cc1ccn2c(NC(=O)COc3ccccc3)c(-c3ccccc3)nc2c1` it was 683 s.

For `C[C@H]1CN(C(=O)Nc2cc(F)cc(F)c2)C[C@@H]1c1nc(-c2ccncc2)no1`, the RP-LC retention time amounted to 883 s. `COc1ccc(CNC(=O)NCC2(c3ccc(F)cc3)CC2)cc1` returned an RP-LC retention time of 817 s. For `C#CCSc1nc2ccccc2c2nc(-c3ccncc3)nn12`, the RP-LC retention time was 977 s. The result for `O=C(O)c1ccc(Nc2c(-c3ccc(Cl)cc3)nc3cnccn23)cc1` reads 737 s; that for `CCCC(=O)Nc1ccc(-n2cnc(C(=O)N3CCN(c4cccc(C)c4C)CC3)c2)nc1`, 929 s; that for `COc1ccc(NC(=O)Cn2nc(N3CCCC(C)C3)c3ccccc3c2=O)cc1OC` (stereo not given), 997 s. Compound `COc1ccc(OC)c(NC(=O)C2CCCN2S(=O)(=O)c2cc3c(cc2Cl)NC(=O)CO3)c1` (stereo not given) displayed an RP-LC retention time of 829 s. In the case of `CCOC(=O)N1CCC(Nc2c(C(=O)OC)c(=O)[nH]c3c(Cl)cccc23)CC1` it was 731 s; in that of `CC(C)CN(CCCNC(=O)C1CCN(c2cnn(C)c(=O)c2)C1)CC(C)C` (stereo not given), 589 s; in that of `COC(=O)c1c(NC(=O)c2ccc([N+](=O)[O-])o2)sc(Cc2ccc3c(c2)OCO3)c1C`, 1130 s. The result for `Cc1cc(C)c(C)c(S(=O)(=O)N2CCC(F)(c3nc(CC(C)C)no3)CC2)c1C` reads 1410 s. The result for `CCc1ccc(N2CC(c3noc(-c4ccc(OC)cc4)n3)CC2=O)cc1` (stereo not given) reads 1080 s; that for `CC(C)Oc1ccc(CNC(=O)C2(C)CCCCC(=O)N2)cc1` (stereo not given), 710 s. As to `O=c1ccc(-c2ccc3c(c2)OCO3)nn1CCc1nc(-c2cccnc2)no1`, the RP-LC retention time amounted to 720 s. The result for `COC(=O)c1c(C)[nH]c(C(=O)N2CCCC(C(=O)NCc3ccc(OC)cc3)C2)c1C` (stereo not given) reads 735 s. `CS(=O)(=O)N(Cc1ccccn1)C1CN(C(=O)CCc2nc3ccccc3s2)C1` returned an RP-LC retention time of 656 s. In the case of `Cc1cc(=O)n(CC(=O)Nc2ccc(F)c(F)c2)c(N2CCCC2)n1` it was 671 s; in that of `COC(=O)c1cccc(COC(=O)C2=CN(C)S(=O)(=O)N=C2C)c1`, 874 s; in that of `COC(=O)c1c(C)[nH]c(C(=O)N2CCC(CC(=O)N3CCN(c4ccccn4)CC3)CC2)c1C`, 606 s.

Take `CCc1nc(OCC(=O)Nc2cc(F)ccc2F)c2ccccc2n1`: the RP-LC retention time worked out at 854 s. The result for `CCn1cc(-c2nc(CC(=O)NCc3ccco3)cs2)c2cccnc21` reads 793 s; that for `Cc1ccccc1CN1CCC2(CC1)CC(O)(c1ccccn1)CCO2` (stereo not given), 570 s. In the case of `CCOc1ccc(CNC(=O)Cc2nnc(-c3ccccn3)o2)cc1` it was 699 s; in that of `O=S(=O)(NC1CCCCC1)c1ccccc1-c1nc(-c2ccccc2)no1`, 1280 s; in that of `O=C(NC1CCCCCCC1)C1CCN(C(=O)c2ncn3c2COC(c2ccc(Cl)cc2)C3)CC1` (stereo not given), 936 s.

`Cc1cc(Br)ccc1NC(=O)C1CCN(C(=O)c2cccn2-c2cccnc2)CC1` registered an RP-LC retention time of 763 s. For the compound `Cc1nc(N)n(CC(=O)NCc2ccc(F)cc2)c(=O)c1C`, the RP-LC retention time was 842 s. In turn, `Cc1ccc(NC(=O)Nc2ccc3c(c2)CCN3S(=O)(=O)c2ccccc2)cc1` registered an RP-LC retention time of 995 s. In the case of `CCNC(=O)c1sc2nc(-c3ccc(OC)cc3)c(NCCOC)n2c1C` it was 704 s; in that of `CC1CCN(S(=O)(=O)c2ccc(-c3nnc(C(=O)NC(C)CCc4ccccc4)o3)cc2)CC1` (stereo not given), 1170 s.

`O=C(Cn1nc(C2CC2)cc1C(=O)N1CCCC1)Nc1ccccc1Cl` displayed an RP-LC retention time of 815 s. The result for `COCc1c(C(=O)O)nnn1-c1ccc(OC)c(OC)c1` reads 626 s; that for `Brc1ccc(-c2nnc(Cc3nc(-c4ccccc4)no3)o2)cc1`, 1100 s; that for `CCOc1ccc(NC(=O)Cc2csc3nc(-c4ccc(C)c(C)c4)cn23)cc1`, 903 s. In the case of `Cc1ccc2c(Nc3ccc(S(N)(=O)=O)cc3)c(C(=O)N3CCCCC3C)cnc2n1` (stereo not given) it was 590 s. In the case of `COc1ccc(OCc2nc(CCN(C)C(=O)c3ccco3)no2)cc1` it was 782 s; in that of `CCOCCCNC(=O)C1CCN(C2=NS(=O)(=O)C(c3ccc(C(C)C)cc3)=C2C)CC1`, 858 s; in that of `Cc1cc(N)n(Cc2ccccc2)n1`, 569 s. With `CN(C)c1ncncc1N1CCC(C(=O)NCc2ccc3c(c2)OCO3)CC1`, the RP-LC retention time is 587 s. In the case of `CCOc1ccccc1NC(=O)N1CCCC(Cn2c(C)nc3cccnc32)C1` (stereo not given) it was 618 s; in that of `Cc1ccc(CCNC(=O)Cn2c(C)nc3onc(C)c3c2=O)cc1`, 787 s; in that of `CCOc1ccc(C(=O)Nc2ccc3c(c2)Sc2ncccc2C(=O)N3C)cc1`, 826 s. Compound `Cc1cc(N2CCCCC2)nc(N2CCN(C(=O)CC3CCCC3)CC2)n1` came in with an RP-LC retention time of 738 s. The result for `O=C1CCCCC(C(=O)N2CCCCC2)N1` (stereo not given) reads 641 s; that for `Cc1cccc(NC(=O)NCC(O)Cc2ccccc2)c1` (stereo not given), 734 s.

In the case of `CCCN(C)c1nccn2c(=O)n(CC(=O)Nc3ccc(F)c(Cl)c3)nc12`, the RP-LC retention time came to 731 s. The result for `Cc1ccc(-c2cn3c(CC(=O)N4CCc5ccccc5C4)csc3n2)cc1C` reads 879 s.
